# According to US20240398736A1, “Eyedrops for Treating Scleral Thinning and Screening Method for Therapeutic Agent of Scleral Thinning” (Tsubota Laboratory, Inc., priority 2020, published 2024):
# Like-named read-outs stand apart in the source and are kept apart here.
# Key:
# [1] = test system: myopia-induced juvenile mouse; details: -30 D lens wearing group
# Protocol: It was examined whether or not a difference in the dosage form of 4-PBA affects the change in the lens. In accordance with the description given above in “Experimental Method”, 4-PBA was eye-dropped or intraperitoneally administered to a myopia-induced juvenile mouse, and the thickness of the lens was measured with SD-OCT in the same manner as in the measurement of the axial length.
# [2] = for 4-PBA Concentration, Choroid / 4-PBA Concentration, Plasma / 4-PBA Concentration, Retina (right) / 4-PBA Concentration, Sclera: 200 mg/kg intraperitoneally for 1 week
# Protocol: Pharmacokinetics in the eye tissue obtained by systemic administration of 4-PBA was confirmed. A specific test method was as follows.
# 4-PBA (200 mg/kg) was intraperitoneally administered for 1 week. One hour after the last administration, the eyeball was excised, and respective tissues were separated. Tissues from 16 mice (32eyeballs) were pooled to be used as 1 sample, and frozen with liquid nitrogen to be stored until measurement. Before the measurement by LC-MS/MS, a 9-fold weight of methanol/water (1:1, v/v) was added thereto for homogenization, and the resultant was centrifuged (10000×g, 4°° C., 5 minutes) to use a supernatant in analysis.
# As a standard reagent, 4-phenylbutyric acid (Tokyo Chemical Industry Co., Ltd.) was used, and LC-MS/MS (LC-20AD system: Shimadzu Corporation, API4000: SCIEX, Tokyo, Japan), and HPLC column, Atlantis dc18 (5 μm, 2.1 mm ID×150 mm, Waters) were used. As a mobile phase, formic acid/water (1:10000, v/v) and acetonitrile were used, and during the analysis, the gradient of each mobile phase was maintained at 50%. A sample injection amount was set to 10 μL, a column temperature was set to 50° C., and a flow rate was set to 0.2 mL/min.
# As mass spectrometry (MS) conditions, negative mode electrospray ionization (ESI) was employed, and ion was measured by multiple reaction monitoring (MRM).
# scleral collagen fibers = test system: scleral collagen fibers
# Protocol: After experimental intervention and eye parameter measurement, the eyeball was excised from the C57BL6J mouse. For transmission electron microscopic observation, the eyeball of the mouse was fixed in ice-cooled 2.5% glutaraldehyde in PBS for 1 hour, and then was cut along the sagittal plane. The cornea and the lens were excised, and the remaining tissue was further fixed in 2.5% glutaraldehyde/60 mM HEPES buffer (pH 7.4) overnight. The resultant specimen was washed with 60 mM HEPES buffer, and was then incubated in 1% tetroxide osmium/60 mM HEPES buffer at 4° C. for 2 hours, and the resultant was dehydrated through ethanol series, exchanged and embedded in Epon 812 (EM Japan, Tokyo, Japan). After the embedding, the resultant block was sliced into 70 nm, and stained with uranyl acetate and lead citrate. The resultant section was visualized with JEM-1400Plus (JEOL LTD., Tokyo, Japan).
# The sclera is a tissue mainly containing collagen, and it is said that collagen fiber narrowing is involved in scleral thinning (see Non Patent Literature 5).
# myopia-induced mouse = details: 2% 4-PBA eye-dropped every day after myopia induction
# Protocol: A solution of 2% sodium phenylbutyrate in PBS (4-PBA) was eye-dropped to both eyes of a myopia induced mouse once a day every day in the evening for 10 days after completing the myopia induction period corresponding to human adulthood. It is noted that administration schedule during the myopia induction period (LIM) and after completing the period is schematically illustrated in FIG. 11.
# It was evaluated whether or not axial elongation is inhibited by eyedrop administration of 4-PBA after the myopia induction period (6 weeks old to 8 weeks old), namely, in a period, corresponding to adulthood in a human, when a posterior segment eye disorder is caused by scleral thinning (FIG. 11) differently from the eyedrop administration in the myopia induction period (3 weeks old to 6 weeks old) in a mouse model simulating myopia progression in childhood as described in Patent Literature 1.
# collagen 1A1 (COL1A1) = details: 2% 4-PBA eyedrop
# Protocol: A protein (10 μg/well) of the sclera was separated by SDS-PAGE, transferred onto a PVDF membrane (Merck Millipore, MA, USA), blocked with Blocking One (Nacalai Tesque, Tokyo), and incubated together with anti-ATF6 (BioAcademia), phosphorylation-IRE1 (Ser724, Abcam, Cambridge, UL), IRE1, phosphorylation-eIF2α, eIF2α, and β-actin (Cell Signaling Technologies Japan, Tokyo, Japan) antibodies at 4° C. overnight. The resultant membrane was incubated with an appropriate HRP-bound secondary antibody, and the resultant was visualized with EzWestLumi plus (ATTA, Tokyo, Japan). SDS-PAGE was performed in a 10% acrylamide gel with a protein size marker (Magic Mark XP Western Protein Standard, ThermoFisher Scientific). The concentration measurement and analysis was performed using Image J software.
# (§1) Quantitative real-time PCR was performed using StepOnePlus Realtime PCR system with PowerUp SYBR Green Master Mix (Applied Biosystems, CA, USA). Expression level was standardized using B-actin.
# 4-PBA was administered by eyedrop to a mouse myopia induction model to confirm its influence on collagen 1A1 (COL1A1) and the like corresponding to principal collagens for maintaining the shape of the eyeball. A specific test method was as follows.
# PBS (Veh) or 2% 4-PBA was eye-dropped to a myopia-induced mouse, and collagen 1A1 in the sclera (n=7) was evaluated by Western blotting method, and expression of collagen-related mRNA was evaluated by quantitative PCR.
# [3] = test system: PERK pathway and ATF6 pathway
# Protocol: A solution of sodium phenylbutyrate in PBS (4-PBA; 200 mg/kg) or tauroursodeoxycholic acid (TUDCA; 100 mg/kg) was intraperitoneally injected (i.p.) every day during the myopia induction period.
# as §1
substance,measurement,setting,value
sodium phenylbutyrate [4-PBA],lens thickening through myopia induction (LIM),[1]; 4-PBA administered by eyedrop,lens thickening was not caused
same,lens thickening through myopia induction (LIM),[1]; intraperitoneal administration of 4-PBA,did not affect lens thickening
same,"4-PBA Concentration, Choroid",[2]; 15 min after administration,348 ng/g or ng/mL
same,"4-PBA Concentration, Plasma",[2]; 15 min after administration,394 ng/g or ng/mL
same,"4-PBA Concentration, Retina (right)",[2]; 15 min after administration,349 ng/g or ng/mL
same,"4-PBA Concentration, Sclera",[2]; 15 min after administration,203 ng/g or ng/mL
same,"4-PBA Concentration, Choroid",[2]; 30 min after administration,117 ng/g or ng/mL
same,"4-PBA Concentration, Plasma",[2]; 30 min after administration,186 ng/g or ng/mL
same,"4-PBA Concentration, Retina (right)",[2]; 30 min after administration,88.2 ng/g or ng/mL
same,"4-PBA Concentration, Sclera",[2]; 30 min after administration,107 ng/g or ng/mL
same,"4-PBA Concentration, Choroid",[2]; 60 min after administration,76.7 ng/g or ng/mL
same,"4-PBA Concentration, Plasma",[2]; 60 min after administration,76.2 ng/g or ng/mL
same,"4-PBA Concentration, Retina (right)",[2]; 60 min after administration,27.9 ng/g or ng/mL
same,"4-PBA Concentration, Sclera",[2]; 60 min after administration,44.9 ng/g or ng/mL
same,"detection of 4-PBA in the retina, the choroid and the sclera",[2]; intraperitoneally administered,detected
same,narrowing of collagen fibers in the sclera,"scleral collagen fibers; 4-PBA administered every day over the myopia-induced period, TEM, FIG. 10a",the narrowing of collagen fibers in the sclera was inhibited
same,scleral collagen fiber cross-sectional area profile,"scleral collagen fibers; eyedrop administration of 2% 4-PBA, FIG. 10b",the area profile was restored to the original one
same,myopic refraction after completing the myopia induction,myopia-induced mouse,tended to be inhibited
same,adulthood axial elongation after completing the myopia induction,myopia-induced mouse; 1st and 3rd weeks,tended to inhibit
same,collagen 1A1 (COL1A1) protein in the sclera (reduction induced by myopia),collagen 1A1 (COL1A1); Western blotting,can be cancelled
same,collagen 1A1 (COL1A1) mRNA in the sclera (reduction induced by myopia),collagen 1A1 (COL1A1); quantitative PCR,can be cancelled
same,"mRNAs of Col4a3, Col8a2, Col11a2, and Col15a1 in the sclera (increase by myopia induction)",collagen 1A1 (COL1A1); quantitative PCR,the increase was cancelled
same,UPR gene expression in the sclera (increase in myopia induced eyes),"[3]; 4-PBA 200 mg/kg/day administered, quantitative PCR",the increase is inhibited by 4-PBA
same,expression of genes disposed downstream of the PERK pathway and the ATF6 pathway,"[3]; eyedrop administration of 2% 4-PBA, FIG. 7",significantly inhibited
